From patent publication US20240174618A1, “SUBSTITUTED (2-HETEROARYLOXYPHENYL)SULFONATES, SALTS THEREOF AND THEIR USE AS HERBICIDAL AGENTS” (Bayer Aktiengesellschaft, priority 2021, published 2024)

What was measured:
Format in all cases: in vivo
Poa annua (POAAN) [1] = assay: A. Herbicidal pre-emergence efficacy, POAAN
Method in brief: (§1)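 Applied before emergence onto covering soil at rates of 1280 g/ha or less, using 600 L/ha spray water with 0.5% additive. Scoring: visual % efficacy after ~3 weeks, greenhouse.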

[2] = test system: Abutilon theophrasti (ABUTH); assay: B. Herbicidal post-emergence efficacy, ABUTH; conditions: rated visually after about 3 weeks
Method in brief: (§2)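 Readout: visual % kill vs untreated, ~3 wk post-spray. Plants in sandy loam pots, treated at one-leaf stage; spray = WP/EC in water + 0.5% additive, 600 L/ha, dose ≤1280 g/ha.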

[3] = test system: Matricaria inodora (MATIN); assay: A. Herbicidal pre-emergence efficacy, MATIN; conditions: pre-emergence, dosage 1280 g/ha
Method in brief: as §1

Kochia scoparia (KCHSC) [4] = assay: A. Herbicidal pre-emergence efficacy, KCHSC; conditions: pre-emergence, dosage 1280 g/ha
Method in brief: as §1

[5] = test system: Digitaria sanguinalis (DIGSA); assay: A. Herbicidal pre-emergence efficacy, DIGSA; conditions: scored visually after about 3 weeks vs untreated controls
Method in brief: as §1

Veronica persica (VERPE) [6] = assay: A. Herbicidal pre-emergence efficacy, VERPE
Method in brief: as §1

Veronica persica (VERPE) [7] = assay: B. Herbicidal post-emergence efficacy, VERPE
Method in brief: as §2

[8] = test system: Abutilon theophrasti (ABUTH); assay: A. Herbicidal pre-emergence efficacy, ABUTH; conditions: 1280 g/ha; scored visually after about 3 weeks vs untreated controls
Method in brief: as §1

[9] = test system: Echinochloa crus-galli (ECHCG); assay: B. Herbicidal post-emergence efficacy, ECHCG; conditions: 1280 g/ha, rated visually after about 3 weeks
Method in brief: as §2

[10] = test system: Alopecurus myosuroides (ALOMY); assay: A. Herbicidal pre-emergence efficacy, ALOMY; conditions: 1280 g/ha; scored visually after about 3 weeks vs untreated controls
Source text: Seeds of mono- and dicotyledonous weed plants were placed in plastic pots in sandy loam soil (doubly sown with one species each of mono- or dicotyledonous weed plants per pot) and covered with soil. The compounds of the invention, formulated in the form of wettable powders (WP) or as emulsion concentrates (EC), were then applied onto the surface of the covering soil as aqueous suspension or emulsion with addition of 0.5% additive at a water application rate of 600 liters per hectare (converted). After the treatment, the pots were placed in a greenhouse and kept under good growth conditions for the test plants. After about 3 weeks, the efficacy of the preparations was scored visually in comparison with untreated controls as percentages.
For example, • 100% efficacy=plants have died, • 0% efficacy=like untreated control plants.
Tables A1a to A12c below show the effects of selected compounds of the general formula (I) according to table 1 on various harmful plants at an application rate corresponding to 1280 g/ha or less, which were obtained by the experimental procedure mentioned above.

[11] = test system: Amaranthus retroflexus (AMARE); assay: A. Herbicidal pre-emergence efficacy, AMARE
Method in brief: as §1

[12] = test system: Echinochloa crus-galli (ECHCG); assay: A. Herbicidal pre-emergence efficacy, ECHCG; conditions: 1280 g/ha; scored visually after about 3 weeks vs untreated controls
Method in brief: as §1

Poa annua (POAAN) [13] = assay: B. Herbicidal post-emergence efficacy, POAAN; conditions: 1280 g/ha
Method in brief: as §2

[14] = test system: Amaranthus retroflexus (AMARE); assay: B. Herbicidal post-emergence efficacy, AMARE
Method in brief: as §2

Lolium rigidum (LOLRI) = assay: A. Herbicidal pre-emergence efficacy, LOLRI; conditions: dosage 1280 g/ha
Method in brief: as §1

Kochia scoparia (KCHSC) [15] = assay: B. Herbicidal post-emergence efficacy, KCHSC; conditions: 1280 g/ha
Method in brief: as §2

Setaria viridis (SETVI) = assay: A. Herbicidal pre-emergence efficacy, SETVI
Method in brief: as §1

Stellaria media (STEME) [16] = assay: B. Herbicidal post-emergence efficacy, STEME
Method in brief: as §2

Stellaria media (STEME) [17] = assay: A. Herbicidal pre-emergence efficacy, STEME; conditions: dosage 1280 g/ha
Method in brief: as §1

## Cc1cccc(Oc2ncc(Br)cn2)c1OS(=O)(=O)CCCC(F)(F)F [Example I-35]
Poa annua (POAAN) [1]; dosage 320 g/ha
  Pre-emergence efficacy against POAAN: 100%
Poa annua (POAAN) [1]; dosage 1280 g/ha
  Pre-emergence efficacy against POAAN: 100%
[2]; 320 g/ha
  Post-emergence efficacy against ABUTH in %: 100%
[2]; 1280 g/ha
  Post-emergence efficacy against ABUTH in %: 100%
[3]
  Pre-emergence efficacy against MATIN: 100%
Kochia scoparia (KCHSC) [4]
  Pre-emergence efficacy against KCHSC: 90%
[5]; 320 g/ha
  Pre-emergence efficacy against DIGSA: 90%
[5]; 1280 g/ha
  Pre-emergence efficacy against DIGSA: 100%
Veronica persica (VERPE) [6]; 320 g/ha
  Pre-emergence efficacy against VERPE in %: 90%
Veronica persica (VERPE) [6]; 1280 g/ha
  Pre-emergence efficacy against VERPE in %: 100%
Veronica persica (VERPE) [7]; 80 g/ha
  Post-emergence efficacy against VERPE: 90%
Veronica persica (VERPE) [7]; 320 g/ha
  Post-emergence efficacy against VERPE: 90%
Veronica persica (VERPE) [7]; 1280 g/ha
  Post-emergence efficacy against VERPE: 100%
[8]
  Pre-emergence efficacy against ABUTH: 100%
[9]
  Post-emergence efficacy against ECHCG in %: 90%
[10]
  Pre-emergence efficacy against ALOMY: 90%
[11]; 320 g/ha
  Pre-emergence efficacy against AMARE in %: 90%
[11]; 1280 g/ha
  Pre-emergence efficacy against AMARE in %: 100%
[12]
  Pre-emergence efficacy against ECHCG: 100%
Poa annua (POAAN) [13]
  Post-emergence efficacy against POAAN: 90%
[14]; 320 g/ha
  Post-emergence efficacy against AMARE: 90%
[14]; 1280 g/ha
  Post-emergence efficacy against AMARE: 100%
Lolium rigidum (LOLRI)
  Pre-emergence efficacy against LOLRI: 100%
Kochia scoparia (KCHSC) [15]
  Post-emergence efficacy against KCHSC: 100%
Setaria viridis (SETVI); dosage 320 g/ha
  Pre-emergence efficacy against SETVI: 100%
Setaria viridis (SETVI); dosage 1280 g/ha
  Pre-emergence efficacy against SETVI: 100%
Stellaria media (STEME) [16]; 80 g/ha
  Post-emergence efficacy against STEME: 90%
Stellaria media (STEME) [16]; 320 g/ha
  Post-emergence efficacy against STEME: 100%
Stellaria media (STEME) [16]; 1280 g/ha
  Post-emergence efficacy against STEME: 100%
Stellaria media (STEME) [17]
  Pre-emergence efficacy against STEME: 100%
